Target: human histamine H3 receptor (Homo sapiens, UniProt Q9Y5N1)
Test: H3 GTPγS assay (SPA method), histamine H3 in vitro assay
Assay type: biochemical
Conditions: not given
Procedure: Briefly, cells expressing the human histamine H3 receptor were homogenized in 15 mM Tris-HCl pH 7.5, 2 mM MgCl2, 0.3 mM EDTA, and 1 mM EGTA. […] Membranes were frozen in liquid nitrogen until use. On the day of the assay, membranes were thawed and diluted in assay buffer (20 mM HEPES pH 7.4, 100 mM NaCl, 10 μg/ml saponin, 1 mM MgCl2) to give 500 μg/ml and mixed (v/v) with GDP in assay buffer for a final GDP concentration of 10 μM and incubated on ice for at least […]. PVT-WGA beads (Amersham, RPNQ001) were diluted in assay buffer at 50 mg/mL and mixed with GTPγ[^35S] (Amersham, SJ1308) diluted in assay buffer to give ˜25,000 dpm/10 μL and mixed vol/vol just before the start of the reaction.
For antagonists testing, 10 μL of a reference agonist ([…]) instead of 10 μL buffer was added at a concentration corresponding to the EC80 (30 nM).
The compounds provided herein were tested in the histamine H3 in vitro assay. In one embodiment, the respective HCl salts of the compounds provided herein were prepared using standard chemical procedures and tested in the histamine H3 in vitro assay.

Sequence of human histamine H3 receptor (Q9Y5N1 whole entry): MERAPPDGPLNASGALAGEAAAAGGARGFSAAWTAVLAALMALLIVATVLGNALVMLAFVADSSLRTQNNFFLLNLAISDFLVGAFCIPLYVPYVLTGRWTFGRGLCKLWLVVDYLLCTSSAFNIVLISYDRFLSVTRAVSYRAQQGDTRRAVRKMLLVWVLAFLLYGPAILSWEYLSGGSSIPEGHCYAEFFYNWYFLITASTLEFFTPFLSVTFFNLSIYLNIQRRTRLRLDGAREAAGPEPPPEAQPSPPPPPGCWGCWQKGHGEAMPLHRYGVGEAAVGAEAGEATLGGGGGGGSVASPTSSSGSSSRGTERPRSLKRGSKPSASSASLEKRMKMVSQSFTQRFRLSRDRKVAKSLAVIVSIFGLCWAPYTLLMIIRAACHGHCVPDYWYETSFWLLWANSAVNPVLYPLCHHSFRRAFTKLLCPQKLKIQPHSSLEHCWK

Row | SMILES | IC50
1 | Brc1ccc2c(c1)nc1n2CCN2CCC[C@H]2C1 [Compound 1, (S)-10-bromo-2,3,5,6,13,13a-hexahydro-1H-benzo[4,5]imidazo[1,2-d]pyrrolo[2,1-g][1,4]diazepine] | < 1000 nM
2 | N#Cc1ccc(-c2ccc3c(c2)nc2n3CCN3CCC[C@H]3C2)cc1 [Compound 2, (S)-4-(2,3,5,6,13,13a-hexahydro-1H-benzo[4,5]imidazo[1,2-d]pyrrolo[2,1-g][1,4]diazepin-10-yl)benzonitrile] | < 100 nM
3 | Brc1ccc2c(c1)nc1n2CC2CCCN2CC1 (stereo not shown) [Compound 12, 9-bromo-2,3,5,6,13,13a-hexahydro-1H-benzo[4,5]imidazo[1,2-d]pyrrolo[1,2-a][1,4]diazepine] | > 1000 nM
4 | c1coc(-c2ccc3c(c2)nc2n3CC3CCC(C2)N3C2CCC2)c1 (stereo not shown) [Compound 19, 13-cyclobutyl-3-(furan-2-yl)-6,7,8,9,10,11-hexahydro-7,10-epiminobenzo[4,5]imidazo[1,2-a]azocine] | < 100 nM
5 | NCc1ccc(-c2ccc3c(c2)nc2n3CC3CCC(C2)N3C2CCC2)cc1 (stereo not shown) [Compound 23, (4-(13-cyclobutyl-6,7,8,9,10,11-hexahydro-7,10-epiminobenzo[4,5]imidazo[1,2-a]azocin-3-yl)phenyl)-methanamine] | < 10 nM
6 | N#Cc1ccc(-c2ccc3c(c2)nc2n3C3CCC2CN(C2CCC2)C3)cc1 (stereo not shown) [Compound 26, 4-(3-cyclobutyl-2,3,4,5-tetrahydro-1H-1,5-ethanobenzo[4,5]imidazo[1,2-d][1,4]diazepin-8-yl)benzonitrile] | < 100 nM

Same assay, conditions: membranes of cells expressing human H3; GTPγ[35S] SPA; antagonist testing with reference agonist at EC80 (30 nM); in one embodiment HCl salts tested; read-out: Potency (functional potency as indicated by IC50)

Row | SMILES | IC50
7 | N#Cc1ccc(-c2ccc3c(c2)nc2n3CC3CCC(C2)N3C2CCC2)cc1 (single isomer, unassigned) [Compound 44] | < 10 nM
8 | N#Cc1ccc(-c2ccc3c(c2)nc2n3CC3CCC(C2)N3C2CCC2)cc1 (single isomer, unassigned) [Compound 45] | < 1000 nM
9 | CC(=O)Nc1ccc(-c2ccc3c(c2)nc2n3CCN3CCC[C@H]3C2)cc1 [Compound 3, (S)-N-(4-(2,3,5,6,13,13a-hexahydro-1H-benzo[4,5]imidazo[1,2-d]pyrrolo[2,1-g][1,4]diazepin-10-yl)phenyl)acetamide] | < 100 nM
10 | c1coc(-c2ccc3c(c2)nc2n3CCN3CCC[C@H]3C2)c1 [Compound 4, (5)-10-(furan-2-yl)-2,3,5,6,13,13a-hexahydro-1H-benzo[4,5]imidazo[1,2-d]pyrrolo[2,1-g][1,4]diazepine] | < 1000 nM
11 | N#Cc1ccc(-c2ccc3c(c2)nc2n3CCN3CCC[C@H]3C2)cn1 [Compound 5, (S)-5-(2,3,5,6,13,13a-hexahydro-1H-benzo[4,5]imidazo[1,2-d]pyrrolo[2,1-g][1,4]diazepin-10-yl)picolinonitrile] | < 100 nM
12 | c1cnc(-c2ccc3c(c2)nc2n3CCN3CCC[C@H]3C2)cn1 [Compound 6, (S)-10-(pyrazin-2-yl)-2,3,5,6,13,13a-hexahydro-1H-benzo[4,5]imidazo[1,2-d]pyrrolo[2,1-g][1,4]diazepine] | > 1000 nM
13 | Clc1ccc2c(c1)nc1n2CC2CCC(C1)N2C1CCC1 (stereo not shown) [Compound 18, 3-chloro-13-cyclobutyl-6,7,8,9,10,11-hexahydro-7,10-epiminobenzo[4,5]imidazo[1,2-a]azocine] | < 1000 nM
14 | N#Cc1ccc(-c2ccc3c(c2)nc2n3CC3CCC(C2)N3C2CCC2)cc1 (stereo not shown) [Compound 20, 4-(13-cyclobutyl-6,7,8,9,10,11-hexahydro-7,10-epiminobenzo[4,5]imidazo[1,2-a]azocin-3-yl)benzonitrile] | < 10 nM
15 | CC(=O)Nc1ccc(-c2ccc3c(c2)nc2n3CC3CCC(C2)N3C2CCC2)cc1 (stereo not shown) [Compound 21, N-(4-(13-cyclobutyl-6,7,8,9,10,11-hexahydro-7,10-epiminobenzo[4,5]imidazo[1,2-a]azocin-3-yl)phenyl)acetamide] | < 10 nM
16 | c1cc2cc(-c3ccc4c(c3)nc3n4CC4CCC(C3)N4C3CCC3)ccc2[nH]1 (stereo not shown) [Compound 22, 13-cyclobutyl-3-(1H-indol-5-yl)-6,7,8,9,10,11-hexahydro-7,10-epiminobenzo[4,5]imidazo[1,2-a]azocine] | < 100 nM
17 | N#Cc1ccc(-c2ccc3c(c2)nc2n3CC3CCC(C2)N3C2CCC2)cc1F (stereo not shown) [Compound 24, 4-(13-cyclobutyl-6,7,8,9,10,11-hexahydro-7,10-epiminobenzo[4,5]imidazo[1,2-a]azocin-3-yl)-2-fluorobenzonitrile] | < 10 nM
18 | Clc1ccc2c(c1)nc1n2C2CCC1CN(C1CCC1)C2 (stereo not shown) [Compound 25, 8-chloro-3-cyclobutyl-2,3,4,5-tetrahydro-1H-1,5-ethanobenzo[4,5]imidazo[1,2-d][1,4]diazepine] | < 1000 nM
19 | CC(=O)Nc1ccc(-c2ccc3c(c2)nc2n3C3CCC2CN(C2CCC2)C3)cc1 (stereo not shown) [Compound 27, N-(4-(3-cyclobutyl-2,3,4,5-tetrahydro-1H-1,5-ethanobenzo[4,5]imidazo[1,2-d][1,4]diazepin-8-yl)phenyl)acetamide] | < 100 nM
20 | c1cc2cc(-c3ccc4c(c3)nc3n4C4CCC3CN(C3CCC3)C4)ccc2[nH]1 (stereo not shown) [Compound 28, 3-cyclobutyl-8-(1H-indol-5-yl)-2,3,4,5-tetrahydro-1H-1,5-ethanobenzo[4,5]imidazo[1,2-d][1,4]diazepine] | > 1000 nM

Other lines, results leading:

Row | IC50 | SMILES
21 | < 100 nM | N#Cc1ccc(-c2ccc3c(c2)nc2n3CCN3CCCCC3C2)cc1 (single isomer, unassigned) [Compound 46]
22 | < 10 nM | N#Cc1ccc(-c2ccc3c(c2)nc2n3CCN3CCCCC3C2)cc1 (single isomer, unassigned) [Compound 47]
23 | < 10 nM | c1cc2c(cc1CN1CCOCC1)nc1n2CCN2CCCCC2C1 (single isomer, unassigned) [Compound 50]
24 | < 100 nM | c1cc2c(cc1CN1CCOCC1)nc1n2CCN2CCCCC2C1 (single isomer, unassigned) [Compound 51]
25 | < 10 nM | c1cn2cc(-c3ccc4c(c3)nc3n4CCCN4CCCCC4C3)ccc2n1 (single isomer, unassigned) [Compound 70]
26 | < 100 nM | c1cn2cc(-c3ccc4c(c3)nc3n4CCCN4CCCCC4C3)ccc2n1 (single isomer, unassigned) [Compound 71]
27 | < 10 nM | c1cn2cc(-c3ccc4c(c3)nc3n4CCN4CCCC4C3)ccc2n1 (single isomer, unassigned) [Compound 77]
28 | < 100 nM | c1cn2cc(-c3ccc4c(c3)nc3n4CCN4CCCC4C3)ccc2n1 (single isomer, unassigned) [Compound 78]
29 | < 10 nM | c1cn2cc(-c3ccc4c(c3)nc3n4CCCN4CCCC4C3)ccc2n1 (single isomer, unassigned) [Compound 82]
30 | < 10 nM | c1cn2cc(-c3ccc4c(c3)nc3n4CCCN4CCCC4C3)ccc2n1 (single isomer, unassigned) [Compound 83]
31 | < 100 nM | Brc1ccc2c(c1)nc1n2CCN2CCCCC2C1 (stereo not shown) [Compound 7, 11-bromo-1,2,3,4,6,7,14,14a-octahydrobenzo-[4,5]imidazo[1,2-d]pyrido[2,1-g][1,4]diazepine]
32 | < 10 nM | N#Cc1ccc(-c2ccc3c(c2)nc2n3CCN3CCCCC3C2)cc1 (stereo not shown) [Compound 8, 4-(1,2,3,4,6,7,14,14a-octahydrobenzo[4,5]imidazo-[1,2-d]pyrido[2,1-g][1,4]diazepin-11-yl)benzonitrile]
33 | < 10 nM | c1cnc(-c2ccc3c(c2)nc2n3CCN3CCCCC3C2)cn1 (stereo not shown) [Compound 9, 11-(pyrazin-2-yl)-1,2,3,4,6,7,14,14a-octahydrobenzo[4,5]imidazo[1,2-d]pyrido[2,1-g][1,4]diazepine]
34 | < 10 nM | c1cn(-c2ccc3c(c2)nc2n3CCN3CCCCC3C2)cn1 (stereo not shown) [Compound 10, 11-(1H-imidazol-1-yl)-1,2,3,4,6,7,14,14a-octahydrobenzo[4,5]imidazo[1,2-d]pyrido[2,1-g][1,4]diazepine]
35 | < 10 nM | CN1CCN(c2ccc3c(c2)nc2n3CCN3CCCCC3C2)CC1 (stereo not shown) [Compound 11, 11-(4-methylpiperazin-1-yl)-1,2,3,4,6,7,14,14a-octahydrobenzo[4,5]imidazo[1,2-d]pyrido[2,1-g][1,4]diazepine]
36 | < 1000 nM | N#Cc1ccc(-c2ccc3c(c2)nc2n3CC3CCCN3CC2)cc1 (stereo not shown) [Compound 13, 4-(2,3,5,6,13,13a-hexahydro-1H-benzo[4,5]imidazo[1,2-d]pyrrolo[1,2-a][1,4]diazepin-9-yl)benzonitrile]
37 | > 1000 nM | c1coc(-c2ccc3c(c2)nc2n3CC3CCCN3CC2)c1 (stereo not shown) [Compound 14, 9-(furan-2-yl)-2,3,5,6,13,13a-hexahydro-1H-benzo[4,5]imidazo[1,2-d]pyrrolo[1,2-a][1,4]diazepine]
38 | < 10 nM | c1cn2cc(-c3ccc4c(c3)nc3n4CCN4CCCCC4C3)ccc2n1 (stereo not shown) [Compound 15, 11-(imidazo[1,2-a]pyridin-6-yl)-1,2,3,4,6,7,14,14a-octahydrobenzo[4,5]imidazo[1,2-d]pyrido[2,1-g][1,4]diazepine]
39 | < 10 nM | c1ccc2c(c1)ncn2-c1ccc2c(c1)nc1n2CCN2CCCCC2C1 (stereo not shown) [Compound 16, 11-(1H-benzo[d]imidazol-1-yl)-1,2,3,4,6,7,14,14a-octahydrobenzo[4,5]imidazo[1,2-d]pyrido[2,1-g][1,4]diazepine]
40 | < 10 nM | c1cc2c(cc1CN1CCOCC1)nc1n2CCN2CCCCC2C1 (stereo not shown) [Compound 17, 4-((1,2,3,4,6,7,14,14a-octahydrobenzo[4,5]imidazo[1,2-d]pyrido[2,1-g][1,4]diazepin-11-yl)methyl)morpholine]

— US20110065694A1 (priority 2009, published 2011)
